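Tested at 5 concentrations; 48 h exposure; 96-well plates; endpoints linearly interpolated, else capped at highest concentration. The concentration for full growth arrest is given as TGI.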
Columns and labels:
Assay in all cases: NCI tumour cell line growth inhibition, 48 h
COLO 205 colon = tested on: COLO 205 colon
SNB-19 CNS = tested on: SNB-19 CNS
HS 578T breast = tested on: HS 578T breast
IGROV1 ovarian = tested on: IGROV1 ovarian
MALME-3M melanoma = tested on: MALME-3M melanoma
SF-295 CNS = tested on: SF-295 CNS
LOX IMVI melanoma = tested on: LOX IMVI melanoma
UO-31 renal = tested on: UO-31 renal
HL-60(TB) leukemia = tested on: HL-60(TB) leukemia
SN12C renal = tested on: SN12C renal
NCI-H23 lung = tested on: NCI-H23 lung
TK-10 renal = tested on: TK-10 renal
OVCAR-4 ovarian = tested on: OVCAR-4 ovarian
SK-OV-3 ovarian = tested on: SK-OV-3 ovarian
SK-MEL-28 melanoma = tested on: SK-MEL-28 melanoma
NCI/ADR-RES ovarian = tested on: NCI/ADR-RES ovarian
SW-620 colon = tested on: SW-620 colon
HCT-116 colon = tested on: HCT-116 colon
BT-549 breast = tested on: BT-549 breast
EKVX NSCLC = tested on: EKVX NSCLC
A498 renal = tested on: A498 renal
KM12 colon = tested on: KM12 colon
SK-MEL-5 melanoma = tested on: SK-MEL-5 melanoma
SF-268 CNS = tested on: SF-268 CNS
UACC-62 melanoma = tested on: UACC-62 melanoma
CAKI-1 renal = tested on: CAKI-1 renal
OVCAR-3 ovarian = tested on: OVCAR-3 ovarian
M14 melanoma = tested on: M14 melanoma
MOLT-4 leukemia = tested on: MOLT-4 leukemia
HOP-62 NSCLC = tested on: HOP-62 NSCLC
NCI-H460 lung = tested on: NCI-H460 lung
CCRF-CEM leukemia = tested on: CCRF-CEM leukemia
OVCAR-8 ovarian = tested on: OVCAR-8 ovarian
DU-145 prostate = tested on: DU-145 prostate
U251 CNS = tested on: U251 CNS
T-47D breast = tested on: T-47D breast
786-0 renal = tested on: 786-0 renal
MDA-N = tested on: MDA-N
OVCAR-5 ovarian = tested on: OVCAR-5 ovarian
HT29 colon = tested on: HT29 colon
NCI-H522 lung = tested on: NCI-H522 lung
MCF7 breast = tested on: MCF7 breast
A549 NSCLC = tested on: A549 NSCLC
MDA-MB-435 = tested on: MDA-MB-435
MDA-MB-231 breast = tested on: MDA-MB-231 breast
UACC-257 melanoma = tested on: UACC-257 melanoma
HOP-92 NSCLC = tested on: HOP-92 NSCLC
HCC-2998 colon = tested on: HCC-2998 colon
PC-3 prostate = tested on: PC-3 prostate
ACHN renal = tested on: ACHN renal
K-562 leukemia = tested on: K-562 leukemia
NCI-H226 lung = tested on: NCI-H226 lung
SF-539 CNS = tested on: SF-539 CNS
HCT-15 colon = tested on: HCT-15 colon

Question: With `Cc1cc(-n2c(/C=C/c3ccc(Cl)cc3)nc3cc(Cl)ccc3c2=O)on1` as the compound, how does the TGI (COLO 205 colon) read?
Answer: > 50 µM

Question: And the TGI (SNB-19 CNS)?
Answer: 26.6 µM

Question: What about the TGI (HS 578T breast) of the same compound?
Answer: 31.4 µM

Question: What about the TGI (IGROV1 ovarian) of the same compound?
Answer: > 50 µM

Question: And the TGI (MALME-3M melanoma)?
Answer: > 50 µM

Question: And the TGI (SF-295 CNS)?
Answer: > 50 µM

Question: What about the TGI (LOX IMVI melanoma) of the same compound?
Answer: > 50 µM

Question: What about the TGI (UO-31 renal) of the same compound?
Answer: 19.7 µM

Question: What about the TGI (HL-60(TB) leukemia) of the same compound?
Answer: > 50 µM

Question: What about the TGI (SN12C renal) of the same compound?
Answer: > 50 µM

Question: And the TGI (NCI-H23 lung)?
Answer: > 50 µM

Question: And the TGI (TK-10 renal)?
Answer: > 50 µM

Question: And the TGI (OVCAR-4 ovarian)?
Answer: 4.05 µM

Question: What about the TGI (SK-OV-3 ovarian) of the same compound?
Answer: 42.3 µM

Question: And the TGI (SK-MEL-28 melanoma)?
Answer: > 50 µM

Question: What about the TGI (NCI/ADR-RES ovarian) of the same compound?
Answer: 39 µM

Question: And the TGI (SW-620 colon)?
Answer: > 50 µM

Question: What about the TGI (HCT-116 colon) of the same compound?
Answer: 29.6 µM

Question: What about the TGI (BT-549 breast) of the same compound?
Answer: > 50 µM

Question: What about the TGI (EKVX NSCLC) of the same compound?
Answer: > 50 µM

Question: What about the TGI (A498 renal) of the same compound?
Answer: 11.5 µM

Question: And the TGI (KM12 colon)?
Answer: > 50 µM

Question: And the TGI (SK-MEL-5 melanoma)?
Answer: > 50 µM

Question: What about the TGI (SF-268 CNS) of the same compound?
Answer: > 50 µM

Question: And the TGI (UACC-62 melanoma)?
Answer: > 50 µM

Question: And the TGI (CAKI-1 renal)?
Answer: > 50 µM

Question: What about the TGI (OVCAR-3 ovarian) of the same compound?
Answer: 30.9 µM

Question: What about the TGI (M14 melanoma) of the same compound?
Answer: 32.9 µM

Question: What about the TGI (MOLT-4 leukemia) of the same compound?
Answer: > 50 µM

Question: And the TGI (HOP-62 NSCLC)?
Answer: 18.3 µM

Question: What about the TGI (NCI-H460 lung) of the same compound?
Answer: 22 µM

Question: What about the TGI (CCRF-CEM leukemia) of the same compound?
Answer: > 50 µM

Question: And the TGI (OVCAR-8 ovarian)?
Answer: 47.7 µM

Question: What about the TGI (DU-145 prostate) of the same compound?
Answer: > 50 µM

Question: And the TGI (U251 CNS)?
Answer: 16.4 µM

Question: What about the TGI (T-47D breast) of the same compound?
Answer: > 50 µM

Question: And the TGI (786-0 renal)?
Answer: 5.19 µM

Question: What about the TGI (MDA-N) of the same compound?
Answer: > 50 µM

Question: And the TGI (OVCAR-5 ovarian)?
Answer: > 50 µM

Question: What about the TGI (HT29 colon) of the same compound?
Answer: > 50 µM

Question: What about the TGI (NCI-H522 lung) of the same compound?
Answer: > 50 µM

Question: What about the TGI (MCF7 breast) of the same compound?
Answer: > 50 µM

Question: And the TGI (A549 NSCLC)?
Answer: > 50 µM

Question: What about the TGI (MDA-MB-435) of the same compound?
Answer: > 50 µM

Question: What about the TGI (MDA-MB-231 breast) of the same compound?
Answer: 42.4 µM

Question: What about the TGI (UACC-257 melanoma) of the same compound?
Answer: > 50 µM

Question: And the TGI (HOP-92 NSCLC)?
Answer: > 50 µM

Question: And the TGI (HCC-2998 colon)?
Answer: > 50 µM

Question: What about the TGI (PC-3 prostate) of the same compound?
Answer: > 50 µM

Question: And the TGI (ACHN renal)?
Answer: 24.1 µM

Question: And the TGI (K-562 leukemia)?
Answer: > 50 µM

Question: And the TGI (NCI-H226 lung)?
Answer: 33.2 µM

Question: What about the TGI (SF-539 CNS) of the same compound?
Answer: > 50 µM

Question: What about the TGI (HCT-15 colon) of the same compound?
Answer: > 50 µM

— PubChem BioAssay (NCI)
